Data as given in patent EP4461731A1, “LIGANDS OF THE M6A-RNA READERS” (Universität Zürich, priority 2023, dated 2024).
Read-outs that look alike come from different tables or passages of the source.

Tests used:
[1] = test system: Cells; assay: cells; details: 72 h
[2] = test system: Cells; details: read-out: Antiprolif. activity GI50; 72 h, CellTiter-Glo; cell line not named
[3] = read-out: Antiprolif. activity GI50
[4] = read-out: Antiprolif. activity GI50, 72 h, CellTiter-Glo, cell line not named

Row | Compound | GI50 [1, 3] [µM] | GI50 [2] [µM] | GI50 [1, 4] [µM]
1 | CNc1nc(Cl)nc2c1ncn2Cc1ccc(OC)c(Cl)c1 [FE150, 2-chloro-9-(3-chloro-4-methoxybenzyl)-N-methyl-9H-purin-6-amine] | ≤ 10 | – | –
2 | CNc1nc(Cl)nc2c1ncn2Cc1cc(Cl)ccc1NS(C)(=O)=O [ZA400, N-(4-chloro-2-((2-chloro-6-(methylamino)-9H-purin-9-yl)methyl)phenyl) methanesulfonamide] | – | 21 | 31
3 | CNc1nc(Cl)nc2c1ncn2Cc1cccc(C(=O)OC)c1 [ZA347, Methyl 3-((2-chloro-6-(methylamino)-9H-purin-9-yl)methyl)benzoate] | – | – | ≤ 10
4 | CNc1nc(Cl)nc2c1ncn2Cc1ccc(C(=O)OC)cc1 [ZA311, Methyl 4-((2-chloro-6-(methylamino)-9H-purin-9-yl)methyl)benzoate] | ≤ 10 | – | –
5 | CNc1nc(Cl)nc2c1ncn2Cc1cccc(Cl)c1 [ZA349, 2-chloro-9-(3-chlorobenzyl)-N-methyl-9H-purin-6-amine] | ≤ 10 | – | –
6 | CNc1nc(Cl)nc2c1ncn2Cc1ccccc1NS(C)(=O)=O [ZA364, N-(2-((2-chloro-6-(methylamino)-9H-purin-9-yl)methyl)phenyl)methanesulfonamide] | – | – | 21
